From US9594084B2, “Phosphorylation of histones and uses thereof” (H. LEE MOFFITT CANCER CENTER AND RESEARCH INSTITUTE, priority 2012, dated 2017)
“Also recorded” adds a separate entry of the source.

How the values were obtained:
[1] = test system: pTyr-AR recruitment to PSA, NKX3,1 and TMPRSS2 promoters; test: ChIP-qPCR for pTyr267-AR binding to PSA, NKX3.1 and TMPRSS2 AREs in LAPC4 cells; type: cell-based; conditions: EGF (10 ng/ml, 1 hr), AIM-100 0.8 μM, 16 hr
Procedure: FIG. 8A-8C are bar graphs showing Ack1 inhibition by AIM-100 suppressed recruitment of pTyr-AR to PSA (FIG. 8A), NKX3.1 (FIG. 8B) and TMPRSS2 (FIG. 8C) promoters. LAPC4 cells were treated with DHT (5 nM, 16 hr) or EGF (10 ng/ml, 1 hr), and AIM-100 (0.8 μM, 16 hr) and ChIP analysis for pTyr267-AR binding to the PSA, NKX3.1 and TMPRSS2 AREs was performed followed by qPCR. *p=0.001; **p=0.006; ***p=0.014.
LAPC4 cells were treated with DHT (5 nM, 16 hr), EGF (10 ng/ml, 1 hr), or EGF and AIM-100 (0.8 μM, 16 hr) and ChIP analysis for pTyr267-AR binding to the PSA, NKX3.1 and TMPRSS2 AREs was performed followed by qPCR. Ack1 inhibition by AIM-100 suppressed recruitment of pTyr-AR to PSA, NKX3,1 and TMPRSS2 promoters (FIGS. 8A-8C).

Ack1 [2] = molecular target: T1, Ack1 (Homo sapiens, UniProt Q07912); type: biochemical
Procedure: Purified histone H3 and Ack1 were incubated at 37° C. for 1 hour with or without AIM-100 followed by immunoblotting with indicated antibodies.

Xenopus laevis embryos = test system: Xenopus laevis embryos
Text: Table 4 provides the phenotype distribution for surviving embryos (raw data are identical to those in Table 3).

Ack1 [3] = molecular target: T2, Ack1 (Homo sapiens, UniProt Q07912, E346K); type: biochemical; conditions: 5 uM for 1 hour at 30° C.
T2 construct: HA; made in house

H3K9 and K27 methylation = test: Immunoblot of H3K9/H3K27 methylation in LAPC4 cells; type: cell-based
Procedure: FIG. 25 is an immunoblot of lysates from LAPC4 cells that were untreated (column 1), treated with EGF (column 2), or treated with EGF and AIM-100 (column 3) that were immunoblotted with H3K9 dimethyl (top panel), H3K27 (middle panel), or H3 (bottom panel) antibodies.
The prostate cancer derived cells, LAPC4 were treated with AIM-100 (7 uM, 16 hours). The equal amount of cell lysates were subjected to immunoblotting with H3K9me3 and histone H3 antibodies. […] The histone H3 antibodies were used as a control to indicate equal amount of protein.
LAPC4 cells were treated with EGF or EGF and AIM-100 and the lysates were immunoblotted with H3K9 dimethyl and H3K27 dimethyl antibodies. Thus, marking of chromatin with H3-Tyr99-phosphorylation within AR-target gene promoters may suppress repressive dimethylation leading to transcriptional activation in androgen-deprived environment of prostate tumors.
LAPC4 cells were treated with EGF or EGF and AIM-100 and the lysates were immunoblotted with H3K9 and H3K27 antibodies. Thus, marking of chromatin with H3-Tyr99-phosphorylation within AR-target gene promoters may suppress repressive dimethylation leading to transcriptional activation in androgen-deprived environment of prostate tumors.

Ack1 [4] = molecular target: T1, Ack1; type: biochemical; conditions: ELISA, read at 450 nm
Procedure: WEE1 and Ack1 are two non-receptor tyrosine kinases or NRTKs that have known nuclear functions. To determine whether WEE1 and Ack1 can directly target H4 for Tyr88-phosphorylation, this study performed in vitro kinase assay. In brief, the Streptavidin coated 96-well plates (R&D systems) were incubated with biotinylated H4-derived peptide […] (SEQ ID NO: 64) for 1 hour. The plates were washed and the purified WEE1 or Ack1 were added in kinase buffer (20 mM HEPES, 150 mM NaCl, 0.5% Triton X-100, 10% Glycerol, phosphatase and protease inhibitors) containing ATP and MgCl2. After 2 hours of incubation, plates were washed with phosphate buffered saline containing 0.1% Tween 20 (PBST) and blocked in 3% BSA. The pY88-H4 antibodies (at 1:500 dilution) were added and incubated for 1 hour. Unbound antibodies were washed and HRP-conjugated anti-mouse secondary Antibodies (1:2000) were added. Magnitude of phosphorylation was detected using developer solution (OPD tablets, Sigma) and the plates were read at 450 nm. As a negative control, no kinase and no peptide reactions were used. The biotinylated phosphopeptide […]p[…] (SEQ ID NO: 65) was used as a positive control.

[5] = test system: LNCaP-caAck expressing cells; test: LNCaP-caAck prostate xenograft tumor growth in castrated nude male mice; type: in vivo; conditions: 4 mg/kg of body weight per injection, five times
Procedure: FIG. 9 is a line graph showing prostate xenograft tumor volume (mm^3) in castrated nude male mice treated with AIM-100 Ack1 inhibitor or DMSO control. Castrated nude male mice were injected with LNCaP-caAck expressing cells. Mice were injected with AIM-100 (4 mg/kg of body weight per injection) on five times (n=8) and tumor volumes were measured.
Castrated nude male mice were injected with LNCaP-caAck expressing cells. Mice were injected with AIM-100 (4 mg/kg of body weight per injection) on five times (n=8) and tumor volumes were measured.

ATM = molecular target: T3, ATM (Homo sapiens, UniProt Q13315); test: IR-induced de-phosphorylation of pY37-H2B in H1975 cells (immunoblot); type: cell-based; conditions: H1975 irradiated (15GY)
T3 construct: endogenous in cells; host or cells: H1975
Text: Whole cell extracts were immunoblotted with indicated antibodies.
To determine whether pY37-H2B de-phosphorylation is regulated by ATM recruited to the sites of DSBs by the MRN complex, Applicants treated the cells with the ATM inhibitor Ku55393. […] EYA in turn interacted with H2AX executing a damage-signal-dependent dephosphorylation of Tyr142, that is constitutively phosphorylated in the absence of DNA damage (Cook, P. J. et al. (2009) Nature, 458(7238):591-596).

[6] = Table 3, of total injected embryos

T1 sequence (Q07912 whole entry): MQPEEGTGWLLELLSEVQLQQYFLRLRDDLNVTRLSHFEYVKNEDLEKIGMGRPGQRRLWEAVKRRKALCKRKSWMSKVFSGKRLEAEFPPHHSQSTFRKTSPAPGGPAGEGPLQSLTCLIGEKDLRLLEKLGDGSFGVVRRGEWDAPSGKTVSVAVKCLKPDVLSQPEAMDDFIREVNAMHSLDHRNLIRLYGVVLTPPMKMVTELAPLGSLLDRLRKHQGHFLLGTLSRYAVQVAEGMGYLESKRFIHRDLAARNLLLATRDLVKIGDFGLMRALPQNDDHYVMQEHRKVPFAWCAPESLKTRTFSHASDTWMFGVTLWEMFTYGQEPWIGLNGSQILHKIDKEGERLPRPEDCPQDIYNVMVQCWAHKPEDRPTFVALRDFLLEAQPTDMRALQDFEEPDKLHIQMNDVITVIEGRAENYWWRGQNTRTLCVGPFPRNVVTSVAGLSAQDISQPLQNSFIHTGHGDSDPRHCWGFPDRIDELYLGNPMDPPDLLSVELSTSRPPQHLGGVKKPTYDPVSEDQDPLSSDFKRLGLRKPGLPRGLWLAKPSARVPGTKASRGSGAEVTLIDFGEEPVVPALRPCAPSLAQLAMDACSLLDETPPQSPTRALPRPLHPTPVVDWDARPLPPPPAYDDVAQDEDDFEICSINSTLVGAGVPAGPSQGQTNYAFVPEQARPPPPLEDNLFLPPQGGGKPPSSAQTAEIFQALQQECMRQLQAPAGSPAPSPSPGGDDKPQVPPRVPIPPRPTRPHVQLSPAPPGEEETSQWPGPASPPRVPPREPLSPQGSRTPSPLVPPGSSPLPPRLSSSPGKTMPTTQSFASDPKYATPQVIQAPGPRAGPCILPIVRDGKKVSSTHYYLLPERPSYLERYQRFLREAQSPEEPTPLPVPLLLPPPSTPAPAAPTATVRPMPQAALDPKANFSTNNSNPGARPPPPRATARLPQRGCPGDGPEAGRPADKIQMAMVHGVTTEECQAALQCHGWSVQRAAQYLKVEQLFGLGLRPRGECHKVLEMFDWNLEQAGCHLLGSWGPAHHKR
T2 sequence (Q07912 whole entry E346K): as the sequence (Q07912 whole entry) above, with E346K counted along it
T3 sequence (Q13315 whole entry): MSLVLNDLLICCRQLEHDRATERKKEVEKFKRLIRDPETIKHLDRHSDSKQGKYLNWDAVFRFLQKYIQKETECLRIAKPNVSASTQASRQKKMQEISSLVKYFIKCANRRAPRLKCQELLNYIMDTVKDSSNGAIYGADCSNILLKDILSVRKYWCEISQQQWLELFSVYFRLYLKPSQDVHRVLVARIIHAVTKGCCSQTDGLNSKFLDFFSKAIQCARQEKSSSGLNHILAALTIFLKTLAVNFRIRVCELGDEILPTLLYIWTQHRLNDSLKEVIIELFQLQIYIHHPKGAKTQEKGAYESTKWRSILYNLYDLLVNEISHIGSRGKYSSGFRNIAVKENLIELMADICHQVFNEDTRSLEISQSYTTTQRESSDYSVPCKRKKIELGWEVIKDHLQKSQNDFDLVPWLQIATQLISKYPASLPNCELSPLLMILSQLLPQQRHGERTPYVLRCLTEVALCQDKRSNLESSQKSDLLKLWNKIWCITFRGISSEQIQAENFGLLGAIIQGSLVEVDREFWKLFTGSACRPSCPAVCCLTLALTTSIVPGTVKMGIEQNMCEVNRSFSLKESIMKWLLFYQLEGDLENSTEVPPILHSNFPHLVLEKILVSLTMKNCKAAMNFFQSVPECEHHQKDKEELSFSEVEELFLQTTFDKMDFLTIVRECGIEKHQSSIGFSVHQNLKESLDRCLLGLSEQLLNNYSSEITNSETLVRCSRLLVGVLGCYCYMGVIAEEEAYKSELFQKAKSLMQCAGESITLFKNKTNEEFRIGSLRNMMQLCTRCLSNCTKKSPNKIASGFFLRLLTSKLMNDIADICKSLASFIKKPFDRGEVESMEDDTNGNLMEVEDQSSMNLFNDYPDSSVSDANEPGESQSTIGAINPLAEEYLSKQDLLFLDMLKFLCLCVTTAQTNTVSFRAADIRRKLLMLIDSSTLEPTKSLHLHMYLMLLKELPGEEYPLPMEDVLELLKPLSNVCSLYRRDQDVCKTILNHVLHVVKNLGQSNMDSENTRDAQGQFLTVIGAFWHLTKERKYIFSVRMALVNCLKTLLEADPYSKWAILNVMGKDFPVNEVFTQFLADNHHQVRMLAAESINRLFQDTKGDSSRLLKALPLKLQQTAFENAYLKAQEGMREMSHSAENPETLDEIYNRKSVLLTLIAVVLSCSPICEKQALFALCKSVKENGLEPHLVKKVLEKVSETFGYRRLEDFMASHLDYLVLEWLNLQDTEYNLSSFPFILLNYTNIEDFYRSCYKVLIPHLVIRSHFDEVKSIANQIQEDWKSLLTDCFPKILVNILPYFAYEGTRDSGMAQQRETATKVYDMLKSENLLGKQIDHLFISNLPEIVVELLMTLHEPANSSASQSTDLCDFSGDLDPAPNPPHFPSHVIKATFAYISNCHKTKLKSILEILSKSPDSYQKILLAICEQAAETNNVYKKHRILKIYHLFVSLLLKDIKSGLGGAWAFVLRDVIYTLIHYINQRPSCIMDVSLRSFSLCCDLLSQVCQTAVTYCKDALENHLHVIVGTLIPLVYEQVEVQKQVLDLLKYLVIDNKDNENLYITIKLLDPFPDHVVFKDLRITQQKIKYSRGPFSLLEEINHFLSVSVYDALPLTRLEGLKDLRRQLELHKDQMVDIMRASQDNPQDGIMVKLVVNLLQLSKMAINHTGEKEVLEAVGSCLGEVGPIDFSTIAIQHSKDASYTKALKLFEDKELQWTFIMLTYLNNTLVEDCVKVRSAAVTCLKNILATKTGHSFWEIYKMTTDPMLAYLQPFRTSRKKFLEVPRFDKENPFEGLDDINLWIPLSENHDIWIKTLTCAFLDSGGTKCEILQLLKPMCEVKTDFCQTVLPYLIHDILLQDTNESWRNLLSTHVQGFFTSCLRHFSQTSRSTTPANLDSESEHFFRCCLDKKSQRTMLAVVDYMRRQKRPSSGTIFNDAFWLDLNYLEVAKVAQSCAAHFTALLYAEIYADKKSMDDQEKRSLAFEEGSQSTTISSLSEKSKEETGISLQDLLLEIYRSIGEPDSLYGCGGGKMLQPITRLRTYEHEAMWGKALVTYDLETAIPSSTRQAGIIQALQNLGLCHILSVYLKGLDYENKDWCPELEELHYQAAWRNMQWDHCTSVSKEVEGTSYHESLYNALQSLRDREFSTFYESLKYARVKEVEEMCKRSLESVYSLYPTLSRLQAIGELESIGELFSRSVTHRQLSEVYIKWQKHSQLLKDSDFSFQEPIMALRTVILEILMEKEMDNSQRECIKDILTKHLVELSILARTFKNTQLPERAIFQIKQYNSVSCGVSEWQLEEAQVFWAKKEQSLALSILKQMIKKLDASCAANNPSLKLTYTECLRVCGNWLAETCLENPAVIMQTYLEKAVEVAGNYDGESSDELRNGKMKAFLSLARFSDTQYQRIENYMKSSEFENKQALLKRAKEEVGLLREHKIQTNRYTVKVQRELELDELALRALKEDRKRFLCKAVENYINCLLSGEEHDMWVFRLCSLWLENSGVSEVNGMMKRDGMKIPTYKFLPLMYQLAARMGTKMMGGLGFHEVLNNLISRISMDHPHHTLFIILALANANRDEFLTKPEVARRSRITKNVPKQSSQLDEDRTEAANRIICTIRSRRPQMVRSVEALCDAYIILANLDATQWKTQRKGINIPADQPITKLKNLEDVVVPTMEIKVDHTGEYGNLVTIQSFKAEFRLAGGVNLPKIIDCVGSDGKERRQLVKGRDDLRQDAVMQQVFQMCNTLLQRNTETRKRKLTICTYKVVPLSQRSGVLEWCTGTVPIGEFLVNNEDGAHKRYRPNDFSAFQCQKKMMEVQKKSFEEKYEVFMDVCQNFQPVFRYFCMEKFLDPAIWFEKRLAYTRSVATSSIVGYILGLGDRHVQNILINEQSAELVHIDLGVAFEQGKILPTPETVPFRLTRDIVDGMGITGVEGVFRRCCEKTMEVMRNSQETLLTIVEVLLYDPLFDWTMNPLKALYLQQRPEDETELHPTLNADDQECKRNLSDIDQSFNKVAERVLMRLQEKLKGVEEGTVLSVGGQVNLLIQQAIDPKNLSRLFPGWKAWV

c1ccc(-c2oc3ncnc(NC[C@@H]4CCCO4)c3c2-c2ccccc2)cc1 [AIM-100]
recruitment of pTyr-AR to PSA, NKX3,1 and TMPRSS2 promoters [1]: suppressed
Ack1 phosphorylation of H3 at Tyr99 (Ack1 [2]): significantly compromised
abn/delay, gastrulation is abnormal or delayed (% of total) (Xenopus laevis embryos; [6]): (6.7%)
abn/delay, gastrulation is abnormal or delayed (number of embryos) (Xenopus laevis embryos; [6]): 15
dead (% of total) (Xenopus laevis embryos; [6]): (43%)
dead (number of embryos) (Xenopus laevis embryos; [6]): 97
epib blk, epiboly block phenotype (% of total) (Xenopus laevis embryos; [6]): (29%)
epib blk, epiboly block phenotype (number of embryos) (Xenopus laevis embryos; [6]): 65
epib red, partial phenotype (% of total) (Xenopus laevis embryos; [6]): (8%)
epib red, partial phenotype (number of embryos) (Xenopus laevis embryos; [6]): 18
norm. (% of total) (Xenopus laevis embryos; [6]): (11%)
norm. (number of embryos) (Xenopus laevis embryos; Table 3, of total injected embryos, antibodies 200 ng/em, AIM-100 200 pM/em): 24
abn/delay (% of survivors) (Xenopus laevis embryos; Table 4, surviving embryos): 12%
abn/delay (number of embryos) (Xenopus laevis embryos; Table 4, surviving embryos): 15
epib blk (number of embryos) (Xenopus laevis embryos; Table 4, surviving embryos): 65
epib red (number of embryos) (Xenopus laevis embryos; Table 4, surviving embryos): 18
normal (% of survivors) (Xenopus laevis embryos; Table 4, surviving embryos): 19%
normal (number of embryos) (Xenopus laevis embryos; Table 4, surviving embryos): 24
mortality rate (Xenopus laevis embryos; by the onset of gastrulation (~20 hours after microinjection at the 2-cell stage, 16° C.)): 43-45%
timing or pattern of early cleavages (Xenopus laevis embryos; injected embryos): did not alter
epib blk, epiboly block/involution failure (% of survivors) (Xenopus laevis embryos; surviving embryos): 51%
epib red, partial reduced epiboly phenotype (% of survivors) (Xenopus laevis embryos; surviving embryos): 14%
H4 pTyr51-phosphorylation by purified E346K-Ack1 (Ack1 [3]): abrogated
H3K9 and K27 dimethylation and trimethylation (H3K9 and K27 methylation): increased
H3 K9 trimethylation (H3K9 and K27 methylation; LAPC4 cells, 7 uM, 16 hours): increased; also recorded: significant increase
H3K9 and K27 dimethylation (H3K9 and K27 methylation; LAPC4 cells, EGF and AIM-100): increased
H4 Tyr88-phosphorylation by Ack1 (Ack1 [4]): significantly decreased
prostate xenograft tumor growth [5]: mitigated the growth; also recorded: partially suppresses

O=c1cc(-c2cccc3c2Sc2ccccc2S3)oc(N2CCOCC2)c1 [Ku55393]
IR-induced de-phosphorylation of pY37-H2B (ATM): prevented
